Assay results reported in publication PMC9963887, “Towards Radiolabeled EGFR-Specific Peptides: Alternatives to GE11” (Pharmaceuticals, 2023).
Where two headings read alike, the source gives them in different places. Where a SMILES comes first, the peptide text is derived from it. Bridges are numbered along the chain shown (N, C = ends). [ ]: non-standard residue; d: D form. The star is where a group is joined. X1 = O=C(O)CN1CCN(CC(=O)O)CCN([C@H](CCC(=O)*)C(=O)O)CC1; PEG6 = NCCOCCOCCOCCOCCOCCOCCC(=O)O

Tests used:
[1] = logD(7.4) determination by partition between 1-octanol and phosphate buffer pH 7.4; type: physicochemical
Description: For peptidic radiotracers, hydrophilicity is an important parameter as it can enable the initial assessment of the route by which the radioligand is metabolized and excreted. The commonly determined measure for the hydrophilicity/lipophilicity profile of a radiotracer is the determination of its logD(7.4) value and is investigated by partition experiments between an aqueous phosphate buffer phase at pH 7.4 and 1-octanol. For [^68Ga]Ga-1–[^68Ga]Ga-11, logD(7.4) values of −3.44 ± 0.08 ([^68Ga]Ga-1), −3.51 ± 0.22 ([^68Ga]Ga-2), −3.92 ± 0.09 ([^68Ga]Ga-3), −4.01 ± 0.13 ([^68Ga]Ga-4), −3.91 ± 0.06 ([^68Ga]Ga-5), −3.86 ± 0.11 ([^68Ga]Ga-6), −3.03 ± 0.20 ([^68Ga]Ga-7), −3.16 ± 0.11 ([^68Ga]Ga-8), −2.93 ± 0.08 ([^68Ga]Ga-9), −3.92 ± 0.09 ([^68Ga]Ga-10) and −3.98 ± 0.06 ([^68Ga]Ga-11) were obtained in these partition experiments. This high hydrophilicity of the tracers can be considered beneficial, as it should result in low, non-specific liver accumulation of the agents. This is advantageous with regard to the visualization of malignant liver lesions (especially hepatocellular carcinomas (HCCs) and liver metastases of colon carcinoma), which mostly overexpress the EGFR [46, 47] and, thus, represent an important area of application of an EGFR-specific peptidic radiotracer.
Determination of the logD(7.4) values of [^68Ga]Ga-1–[^68Ga]Ga-11. The aqueous phasepH7.4/1-octanol partition coefficient (logD(7.4)) of the developed radiotracers was determined by addition of a solution of the respective radiolabeled peptide (5 µL, 0.5–2 MBq) to a mixture of 1-octanol (800 µL) and phosphate buffer (0.05 M, pH 7.4, 795 µL). The mixtures were vigorously shaken for 5 min on a mechanical shaker and subsequently centrifuged at 13,000 rpm (12,100× g) for 2 min to achieve complete phase separation. 125 µL of each phase were taken and the amount of radioactivity in each phase was determined by γ-counting. Experiments were performed thrice, each in triplicate.

[2] = stability towards degradation by human serum peptidases; type: in vitro ADME; conditions: pooled human serum, 37 °C, incubation up to 90 min, intact tracer by radio-HPLC; read-out: Calculated Half-Life in Human Serum
Procedure: For the applicability of radiopeptides, their stability towards degradation by human serum peptidases is of importance as a low stability towards metabolization interferes with successful target visualization. Thus, the stability of the radiopeptides [^68Ga]Ga-1–[^68Ga]Ga-11 against degradation was determined by incubation with commercially available pooled human serum of healthy donors at 37 °C for 0, 15, 30, 45, 60, 75 and 90 min. At these time points, the fraction of the intact radiopeptides was again determined by analytical radio-HPLC, and the serum half-life of each radioligand was calculated.
Determination of the stability of [^68Ga]Ga-1–[^68Ga]Ga-11 towards degradation by human serum peptidases. A sample of the respective radiolabeled peptide (125 µL, 10–30 MBq, pH 7.4) was added to commercially available pooled human serum (500 µL) and warmed to 37 °C. At defined time-points (t = 0, […]), 75 µL of the mixture were added to 75 µL ice-cold ethanol, further cooled on ice for 5 min, and centrifuged at 13,000 rpm (12,100× g) for 90 s. The supernatant was collected, the activity of the supernatant and the precipitate measured, where after the supernatant was analyzed by analytical radio-HPLC and the amount of intact tracer was quantified. Experiments were performed thrice for each radioligand.

[3] = 1-octanol / phosphate buffer 0.05 M, read-out: logD(7.4)

| logD [1] | logD [1, 3] | half-life [2] [h] | Compound |
| --- | --- | --- | --- |
| -3.16 ± 0.11 | – | – | CSCC[C@H](NC(=O)[C@@H]1CSSC[C@H](NC(=O)[C@@H](N)CCC(=O)O)C(=O)N2CCC[C@H]2C(=O)N[C@@H](CC(C)C)C(=O)N[C@@H](CO)C(=O)N[C@@H](Cc2c[nH]cn2)C(=O)N[C@@H](CC(=O)O)C(=O)NCC(=O)N[C@@H](Cc2ccc(O)cc2)C(=O)N[C@@H](CS)C(=O)N[C@@H](CC(C)C)C(=O)N[C@@H](Cc2c[nH]cn2)C(=O)N[C@@H](CC(=O)O)C(=O)NCC(=O)N[C@@H](C(C)C)C(=O)N1)C(=O)NCCOCCOCCOCCOCCOCCOCCC(=O)N[C@@H](CCCCNC(=O)CC[C@H](C(=O)O)N1CCN(CC(=O)O)CCN(CC(=O)O)CC1)C(N)=O [[^68Ga]Ga-8, metal not drawn] (H-ECPLSHDGYCLHDGVCM[PEG6]K(X1)-NH2; disulfide 2-16) |
| – | -3.44 ± 0.08 | 4.928 ± 0.045 | CC[C@H](C)[C@H](NC(=O)[C@@H](NC(=O)[C@H](CC(N)=O)NC(=O)[C@H](CCC(N)=O)NC(=O)[C@@H]1CCCN1C(=O)[C@@H](NC(=O)[C@H](Cc1ccc(O)cc1)NC(=O)CNC(=O)[C@H](Cc1ccc(O)cc1)NC(=O)[C@H](Cc1c[nH]c2ccccc12)NC(=O)[C@H](Cc1c[nH]cn1)NC(=O)[C@H](Cc1ccc(O)cc1)NC(=O)CCOCCOCCOCCOCCOCCOCCNC(=O)CC[C@H](C(=O)O)N1CCN(CC(=O)O)CCN(CC(=O)O)CC1)[C@@H](C)O)C(C)C)C(=O)O [[^68Ga]Ga-1, metal not drawn] |
| -3.51 ± 0.22 | – | – | CC(C)C[C@H](NC(=O)CCOCCOCCOCCOCCOCCOCCNC(=O)CC[C@H](C(=O)O)N1CCN(CC(=O)O)CCN(CC(=O)O)CC1)C(=O)N[C@@H](C)C(=O)N[C@@H](CCCNC(=N)N)C(=O)N[C@@H](CC(C)C)C(=O)N[C@@H](CC(C)C)C(=O)N[C@H](C(=O)O)[C@@H](C)O [[^68Ga]Ga-2, metal not drawn] |
| – | -3.03 ± 0.2 | 1.11 ± 0.05 | CSCC[C@H](NC(=O)[C@@H]1CCCN1C(=O)[C@@H](N)Cc1ccccc1)C(=O)N[C@@H](Cc1ccccc1)C(=O)N[C@@H](CC(N)=O)C(=O)N[C@@H](Cc1c[nH]cn1)C(=O)N[C@@H](Cc1c[nH]c2ccccc12)C(=O)N[C@@H](CCC(=O)O)C(=O)N[C@@H](CCC(N)=O)C(=O)N[C@@H](Cc1c[nH]c2ccccc12)C(=O)N1CCC[C@H]1C(=O)N1CCC[C@H]1C(=O)NCCOCCOCCOCCOCCOCCOCCC(=O)N[C@@H](CCCCNC(=O)CC[C@H](C(=O)O)N1CCN(CC(=O)O)CCN(CC(=O)O)CC1)C(N)=O [[^68Ga]Ga-7, metal not drawn] (H-FPMFNHWEQWPP[PEG6]K(X1)-NH2) |
| – | -4.01 ± 0.13 | 40.5 ± 0.645 | C[C@@H](O)[C@H](NC(=O)[C@H](CCC(N)=O)NC(=O)[C@H](CC(=O)O)NC(=O)[C@H](CO)NC(=O)[C@@H](NC(=O)[C@H](Cc1c[nH]cn1)NC(=O)CCOCCOCCOCCOCCOCCOCCNC(=O)CC[C@H](C(=O)O)N1CCN(CC(=O)O)CCN(CC(=O)O)CC1)[C@@H](C)O)C(=O)N[C@@H](CC(N)=O)C(=O)O [[^68Ga]Ga-4, metal not drawn] ({X1-PEG6}-HTSDQTN-OH) |
| – | -3.98 ± 0.06 | 9.37 ± 0.115 | C[C@H](NC(=O)[C@H](CCC(=O)O)NC(=O)[C@H](Cc1ccc(O)cc1)NC(=O)[C@H](CC(=O)O)NC(=O)[C@H](Cc1ccc(O)cc1)NC(=O)[C@H](Cc1ccccc1)NC(=O)CNC(=O)[C@@H]1CCCN1C(=O)CNC(=O)[C@H](CC(N)=O)NC(=O)[C@H](CCC(=O)O)NC(=O)CNC(=O)[C@H](CO)NC(=O)[C@@H](N)Cc1c[nH]c2ccccc12)C(=O)NCCOCCOCCOCCOCCOCCOCCC(=O)N[C@@H](CCCCNC(=O)CC[C@H](C(=O)O)N1CCN(CC(=O)O)CCN(CC(=O)O)CC1)C(N)=O [[^68Ga]Ga-11, metal not drawn] (H-WSGENGPGFYDYEA[PEG6]K(X1)-NH2) |
| – | -3.86 ± 0.11 | 17.7 ± 0.717 | CC(C)C[C@H](NC(=O)[C@H](Cc1c[nH]c2ccccc12)NC(=O)[C@H](Cc1ccccc1)NC(=O)[C@H](CCC(N)=O)NC(=O)[C@H](C)NC(=O)[C@H](CO)NC(=O)[C@H](CC(=O)O)NC(=O)[C@@H]1CCCN1C(=O)[C@H](CCCNC(=N)N)NC(=O)[C@@H](N)CC(N)=O)C(=O)N[C@@H](Cc1c[nH]cn1)C(=O)N[C@@H](Cc1c[nH]cn1)C(=O)NCCOCCOCCOCCOCCOCCOCCC(=O)N[C@@H](CCCCNC(=O)CC[C@H](C(=O)O)N1CCN(CC(=O)O)CCN(CC(=O)O)CC1)C(N)=O [[^68Ga]Ga-6, metal not drawn] (H-NRPDSAQFWLHH[PEG6]K(X1)-NH2) |
| – | -3.91 ± 0.06 | – | N=C(N)NCCC[C@H](NC(=O)[C@@H](N)CCC(N)=O)C(=O)N[C@@H](Cc1c[nH]cn1)C(=O)N[C@@H](CCCCN)C(=O)N1CCC[C@H]1C(=O)N[C@@H](CCCNC(=N)N)C(=O)N[C@@H](CCC(=O)O)C(=O)NCCOCCOCCOCCOCCOCCOCCC(=O)N[C@@H](CCCCNC(=O)CC[C@H](C(=O)O)N1CCN(CC(=O)O)CCN(CC(=O)O)CC1)C(N)=O [[^68Ga]Ga-5, metal not drawn] (H-QRHKPRE[PEG6]K(X1)-NH2) |
| -2.93 ± 0.08 | – | – | CC[C@H](C)[C@@H]1NC(=O)[C@H](Cc2ccc(O)cc2)NC(=O)[C@H](CCSC)NC(=O)[C@H](CS)NC(=O)[C@H](C(C)C)NC(=O)CNC(=O)[C@H](CC(=O)O)NC(=O)[C@H](Cc2c[nH]cn2)NC(=O)[C@H](CC(C)C)NC(=O)[C@@H](NC(=O)[C@@H](N)Cc2ccc(O)cc2)CSSC[C@@H](C(=O)N[C@@H](CC(N)=O)C(=O)NCCOCCOCCOCCOCCOCCOCCC(=O)N[C@@H](CCCCNC(=O)CC[C@H](C(=O)O)N2CCN(CC(=O)O)CCN(CC(=O)O)CC2)C(N)=O)NC(=O)[C@H](C)NC(=O)[C@H](Cc2ccc(O)cc2)NC(=O)[C@H](CCCCN)NC(=O)[C@H](CC(=O)O)NC(=O)[C@H](CC(C)C)NC(=O)[C@H](C)NC(=O)[C@H](CCC(=O)O)NC1=O [[^68Ga]Ga-9, metal not drawn] (H-YCLHDGVCMYIEALDKYACN[PEG6]K(X1)-NH2; disulfide 2-19; N-terminus assumed) |
| – | -3.92 ± 0.09 | 11.7 ± 0.703 | CC[C@H](C)[C@@H]1NC(=O)[C@H](Cc2ccc(O)cc2)NC(=O)CNC(=O)[C@H](C(C)C)NC(=O)[C@H](C(C)C)NC(=O)[C@@H](NC(=O)[C@@H](N)CC(N)=O)CSSC[C@@H](C(=O)N[C@@H](CCC(N)=O)C(=O)NCCOCCOCCOCCOCCOCCOCCC(=O)N[C@@H](CCCCNC(=O)CC[C@H](C(=O)O)N2CCN(CC(=O)O)CCN(CC(=O)O)CC2)C(N)=O)NC(=O)[C@H](CCCNC(=N)N)NC(=O)[C@H](CCC(=O)O)NC(=O)CNC1=O [[^68Ga]Ga-10, metal not drawn] (H-NCVVGYIGERCQ[PEG6]K(X1)-NH2; disulfide 2-11) |
| – | -3.92 ± 0.09 | 135 ± 5.12 | CC[C@H](C)[C@H](NC(=O)[C@@H]1CCCN1C(=O)[C@H](Cc1ccc(O)cc1)NC(=O)[C@H](CO)NC(=O)CCOCCOCCOCCOCCOCCOCCNC(=O)CC[C@H](C(=O)O)N1CCN(CC(=O)O)CCN(CC(=O)O)CC1)C(=O)N1CCC[C@H]1C(=O)N[C@@H](CC(=O)O)C(=O)N[C@H](C(=O)O)[C@@H](C)O [[^68Ga]Ga-3, metal not drawn] ({X1-PEG6}-SYPIPDT-OH; C-terminus assumed) |
